Test results as given in patent US20230017045A1, “PYRIDINE AND PYRIMIDINE CARBOXYLATE HERBICIDES AND METHODS OF USE THEREOF” (Dow AgroSciences LLC, priority 2017, published 2023).

What follows are compounds tested on test plant species (assay: Post-emergent herbicidal activity test (greenhouse, foliar spray, visual growth reduction)). Conditions: post-emergence, 336 h, ECHCG: barnyardgrass (Echinochloa crus-galli), 140 g ai/ha, 14 days after application, read-out: Visual Growth Reduction (%) 14 Days After Application, ECHCG.
Type: in vivo
Procedure, shortened: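 Greenhouse plants at first–second true leaf stage sprayed overhead at 187 L/ha with compound in acetone/water/isopropanol/DMSO/crop oil/X-77 carrier; controls received solvent blank. Injury rated visually after 14 d on a 0–100% scale versus untreated and control plants, converted to growth reduction.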
With COC(=O)c1nc(-c2ccc(C(F)(F)F)cc2Cl)ccc1[N+](=O)[O-] [F201, Methyl 6-(2-chloro-4-(trifluoromethyl)phenyl)-3-nitropicolinate] the pest or weed control at 140 g/ha was 0 to 29%. COC(=O)c1nc(-c2ccc(OC(F)(F)F)cc2Cl)c(F)cc1Cl [F210, Methyl 3-chloro-6-(2-chloro-4-(trifluoromethoxy)phenyl)-5-fluoropicolinate] was tested, and the pest or weed control at 140 g/ha was 60 to 74%. O=C(O)c1nc(-c2cc(F)c(C(F)(F)F)cc2Cl)c(F)cc1Cl [F254, 3-Chloro-6-(2-chloro-5-fluoro-4-(trifluoromethyl)phenyl)-5-fluoropicolinic acid] gave a pest or weed control at 140 g/ha of 95 to 100%.

Same assay, conditions: post-emergence, 336 h, IPOHE: ivy-leaf morning glory (Ipomoea hederacea), 140 g ai/ha, 14 days after application, read-out: Visual Growth Reduction (%) 14 Days After Application, IPOHE
Compound COC(=O)c1nc(-c2ccc(C(F)(F)F)cc2Cl)ccc1[N+](=O)[O-] [F201, Methyl 6-(2-chloro-4-(trifluoromethyl)phenyl)-3-nitropicolinate] has a pest or weed control at 140 g/ha of 0 to 29%. Compound COC(=O)c1nc(-c2ccc(OC(F)(F)F)cc2Cl)c(F)cc1Cl [F210, Methyl 3-chloro-6-(2-chloro-4-(trifluoromethoxy)phenyl)-5-fluoropicolinate] has a pest or weed control at 140 g/ha of 95 to 100%. For O=C(O)c1nc(-c2cc(F)c(C(F)(F)F)cc2Cl)c(F)cc1Cl [F254, 3-Chloro-6-(2-chloro-5-fluoro-4-(trifluoromethyl)phenyl)-5-fluoropicolinic acid], the pest or weed control at 140 g/ha was 95 to 100%.

Same assay, conditions: post-emergence, 336 h, KCHSC: kochia (Bassia scoparia), 140 g ai/ha, 14 days after application, read-out: Visual Growth Reduction (%) 14 Days After Application, KCHSC
COC(=O)c1nc(-c2ccc(C(F)(F)F)cc2Cl)ccc1[N+](=O)[O-] [F201, Methyl 6-(2-chloro-4-(trifluoromethyl)phenyl)-3-nitropicolinate] was tested, and the pest or weed control at 140 g/ha was 0 to 29%. COC(=O)c1nc(-c2ccc(OC(F)(F)F)cc2Cl)c(F)cc1Cl [F210, Methyl 3-chloro-6-(2-chloro-4-(trifluoromethoxy)phenyl)-5-fluoropicolinate] gave a pest or weed control at 140 g/ha of 75 to 84%. In the case of O=C(O)c1nc(-c2cc(F)c(C(F)(F)F)cc2Cl)c(F)cc1Cl [F254, 3-Chloro-6-(2-chloro-5-fluoro-4-(trifluoromethyl)phenyl)-5-fluoropicolinic acid], the pest or weed control at 140 g/ha is reported as 85 to 94%.

Same assay, conditions: post-emergence, 336 h, ORYSA: rice (Oryza sativa), 140 g ai/ha, 14 days after application, read-out: Visual Growth Reduction (%) 14 Days After Application, ORYSA
Work on COC(=O)c1nc(-c2ccc(C(F)(F)F)cc2Cl)ccc1[N+](=O)[O-] [F201, Methyl 6-(2-chloro-4-(trifluoromethyl)phenyl)-3-nitropicolinate] yielded a pest or weed control at 140 g/ha of 0 to 29%. In the case of COC(=O)c1nc(-c2ccc(OC(F)(F)F)cc2Cl)c(F)cc1Cl [F210, Methyl 3-chloro-6-(2-chloro-4-(trifluoromethoxy)phenyl)-5-fluoropicolinate], the pest or weed control at 140 g/ha is reported as 0 to 29%. In the case of O=C(O)c1nc(-c2cc(F)c(C(F)(F)F)cc2Cl)c(F)cc1Cl [F254, 3-Chloro-6-(2-chloro-5-fluoro-4-(trifluoromethyl)phenyl)-5-fluoropicolinic acid], the pest or weed control at 140 g/ha is reported as 75 to 84%.

Same assay, conditions: post-emergence, 336 h, SETFA: giant foxtail (Setaria faberi), 140 g ai/ha, 14 days after application, read-out: Visual Growth Reduction (%) 14 Days After Application, SETFA
Compound COC(=O)c1nc(-c2ccc(C(F)(F)F)cc2Cl)ccc1[N+](=O)[O-] [F201, Methyl 6-(2-chloro-4-(trifluoromethyl)phenyl)-3-nitropicolinate] has a pest or weed control at 140 g/ha of 0 to 29%. Work on COC(=O)c1nc(-c2ccc(OC(F)(F)F)cc2Cl)c(F)cc1Cl [F210, Methyl 3-chloro-6-(2-chloro-4-(trifluoromethoxy)phenyl)-5-fluoropicolinate] yielded a pest or weed control at 140 g/ha of 85 to 94%. Work on O=C(O)c1nc(-c2cc(F)c(C(F)(F)F)cc2Cl)c(F)cc1Cl [F254, 3-Chloro-6-(2-chloro-5-fluoro-4-(trifluoromethyl)phenyl)-5-fluoropicolinic acid] yielded a pest or weed control at 140 g/ha of 95 to 100%.

Same assay, conditions: post-emergence, 336 h, SORVU: grain sorghum (Sorghum vulgare), 140 g ai/ha, 14 days after application, read-out: Visual Growth Reduction (%) 14 Days After Application, SORVU
COC(=O)c1nc(-c2ccc(C(F)(F)F)cc2Cl)ccc1[N+](=O)[O-] [F201, Methyl 6-(2-chloro-4-(trifluoromethyl)phenyl)-3-nitropicolinate] showed a pest or weed control at 140 g/ha of 0 to 29%. COC(=O)c1nc(-c2ccc(OC(F)(F)F)cc2Cl)c(F)cc1Cl [F210, Methyl 3-chloro-6-(2-chloro-4-(trifluoromethoxy)phenyl)-5-fluoropicolinate] showed a pest or weed control at 140 g/ha of 95 to 100%. For O=C(O)c1nc(-c2cc(F)c(C(F)(F)F)cc2Cl)c(F)cc1Cl [F254, 3-Chloro-6-(2-chloro-5-fluoro-4-(trifluoromethyl)phenyl)-5-fluoropicolinic acid], the pest or weed control at 140 g/ha was 95 to 100%.

Same assay, conditions: post-emergence, 336 h, STEME: common chickweed (Stellaria media), 140 g ai/ha, 14 days after application, read-out: Visual Growth Reduction (%) 14 Days After Application, STEME
Compound COC(=O)c1nc(-c2ccc(C(F)(F)F)cc2Cl)ccc1[N+](=O)[O-] [F201, Methyl 6-(2-chloro-4-(trifluoromethyl)phenyl)-3-nitropicolinate] has a pest or weed control at 140 g/ha of 0 to 29%. For COC(=O)c1nc(-c2ccc(OC(F)(F)F)cc2Cl)c(F)cc1Cl [F210, Methyl 3-chloro-6-(2-chloro-4-(trifluoromethoxy)phenyl)-5-fluoropicolinate], the pest or weed control at 140 g/ha was 0 to 29%. Work on O=C(O)c1nc(-c2cc(F)c(C(F)(F)F)cc2Cl)c(F)cc1Cl [F254, 3-Chloro-6-(2-chloro-5-fluoro-4-(trifluoromethyl)phenyl)-5-fluoropicolinic acid] yielded a pest or weed control at 140 g/ha of 95 to 100%.

Same assay, conditions: post-emergence, 336 h, TRZAS: wheat, spring (Triticum aestivum), 140 g ai/ha, 14 days after application, read-out: Visual Growth Reduction (%) 14 Days After Application, TRZAS
For COC(=O)c1nc(-c2ccc(C(F)(F)F)cc2Cl)ccc1[N+](=O)[O-] [F201, Methyl 6-(2-chloro-4-(trifluoromethyl)phenyl)-3-nitropicolinate], the pest or weed control at 140 g/ha was 0 to 29%. COC(=O)c1nc(-c2ccc(OC(F)(F)F)cc2Cl)c(F)cc1Cl [F210, Methyl 3-chloro-6-(2-chloro-4-(trifluoromethoxy)phenyl)-5-fluoropicolinate] gave a pest or weed control at 140 g/ha of 45 to 59%. O=C(O)c1nc(-c2cc(F)c(C(F)(F)F)cc2Cl)c(F)cc1Cl [F254, 3-Chloro-6-(2-chloro-5-fluoro-4-(trifluoromethyl)phenyl)-5-fluoropicolinic acid] gave a pest or weed control at 140 g/ha of 95 to 100%.

Same assay, conditions: post-emergence, 336 h, blackgrass (Alopecurus myosuroides), 14 Days After Application, 140 g ai/ha, read-out: Visual Growth Reduction (%) ALOMY
Compound COC(=O)c1nc(-c2ccc(C(F)(F)F)cc2Cl)ccc1[N+](=O)[O-] [F201, Methyl 6-(2-chloro-4-(trifluoromethyl)phenyl)-3-nitropicolinate] has a pest or weed control at 140 g/ha of 0 to 29%. For COC(=O)c1nc(-c2ccc(OC(F)(F)F)cc2Cl)c(F)cc1Cl [F210, Methyl 3-chloro-6-(2-chloro-4-(trifluoromethoxy)phenyl)-5-fluoropicolinate], the pest or weed control at 140 g/ha was 45 to 59%. O=C(O)c1nc(-c2cc(F)c(C(F)(F)F)cc2Cl)c(F)cc1Cl [F254, 3-Chloro-6-(2-chloro-5-fluoro-4-(trifluoromethyl)phenyl)-5-fluoropicolinic acid] gave a pest or weed control at 140 g/ha of 85 to 94%.

Same assay, conditions: post-emergence, 336 h, canada thistle (Cirsium arvense), 14 Days After Application, 140 g ai/ha, read-out: Visual Growth Reduction (%) CIRAR
Work on COC(=O)c1nc(-c2ccc(C(F)(F)F)cc2Cl)ccc1[N+](=O)[O-] [F201, Methyl 6-(2-chloro-4-(trifluoromethyl)phenyl)-3-nitropicolinate] yielded a pest or weed control at 140 g/ha of 0 to 29%. COC(=O)c1nc(-c2ccc(OC(F)(F)F)cc2Cl)c(F)cc1Cl [F210, Methyl 3-chloro-6-(2-chloro-4-(trifluoromethoxy)phenyl)-5-fluoropicolinate] gave a pest or weed control at 140 g/ha of 85 to 94%. In the case of O=C(O)c1nc(-c2cc(F)c(C(F)(F)F)cc2Cl)c(F)cc1Cl [F254, 3-Chloro-6-(2-chloro-5-fluoro-4-(trifluoromethyl)phenyl)-5-fluoropicolinic acid], the pest or weed control at 140 g/ha is reported as 95 to 100%.

Same assay, conditions: post-emergence, 336 h, crabgrass (Digitaria sanguinalis), 14 Days After Application, 140 g ai/ha, read-out: Visual Growth Reduction (%) DIGSA
COC(=O)c1nc(-c2ccc(C(F)(F)F)cc2Cl)ccc1[N+](=O)[O-] [F201, Methyl 6-(2-chloro-4-(trifluoromethyl)phenyl)-3-nitropicolinate] gave a pest or weed control at 140 g/ha of 0 to 29%. COC(=O)c1nc(-c2ccc(OC(F)(F)F)cc2Cl)c(F)cc1Cl [F210, Methyl 3-chloro-6-(2-chloro-4-(trifluoromethoxy)phenyl)-5-fluoropicolinate] gave a pest or weed control at 140 g/ha of 85 to 94%. O=C(O)c1nc(-c2cc(F)c(C(F)(F)F)cc2Cl)c(F)cc1Cl [F254, 3-Chloro-6-(2-chloro-5-fluoro-4-(trifluoromethyl)phenyl)-5-fluoropicolinic acid] was tested, and the pest or weed control at 140 g/ha was 95 to 100%.

Same assay, conditions: post-emergence, 336 h, lambsquarters (Chenopodium album), 14 Days After Application, 140 g ai/ha, read-out: Visual Growth Reduction (%) CHEAL
COC(=O)c1nc(-c2ccc(C(F)(F)F)cc2Cl)ccc1[N+](=O)[O-] [F201, Methyl 6-(2-chloro-4-(trifluoromethyl)phenyl)-3-nitropicolinate] gave a pest or weed control at 140 g/ha of 0 to 29%. In the case of COC(=O)c1nc(-c2ccc(OC(F)(F)F)cc2Cl)c(F)cc1Cl [F210, Methyl 3-chloro-6-(2-chloro-4-(trifluoromethoxy)phenyl)-5-fluoropicolinate], the pest or weed control at 140 g/ha is reported as 85 to 94%. O=C(O)c1nc(-c2cc(F)c(C(F)(F)F)cc2Cl)c(F)cc1Cl [F254, 3-Chloro-6-(2-chloro-5-fluoro-4-(trifluoromethyl)phenyl)-5-fluoropicolinic acid] gave a pest or weed control at 140 g/ha of 95 to 100%.

Same assay, conditions: post-emergence, 336 h, redroot pigweed (Amaranthus retroflexus), 14 Days After Application, 140 g ai/ha, read-out: Visual Growth Reduction (%) AMARE
COC(=O)c1nc(-c2ccc(C(F)(F)F)cc2Cl)ccc1[N+](=O)[O-] [F201, Methyl 6-(2-chloro-4-(trifluoromethyl)phenyl)-3-nitropicolinate] gave a pest or weed control at 140 g/ha of 45 to 59%. COC(=O)c1nc(-c2ccc(OC(F)(F)F)cc2Cl)c(F)cc1Cl [F210, Methyl 3-chloro-6-(2-chloro-4-(trifluoromethoxy)phenyl)-5-fluoropicolinate] showed a pest or weed control at 140 g/ha of 95 to 100%. With O=C(O)c1nc(-c2cc(F)c(C(F)(F)F)cc2Cl)c(F)cc1Cl [F254, 3-Chloro-6-(2-chloro-5-fluoro-4-(trifluoromethyl)phenyl)-5-fluoropicolinic acid] the pest or weed control at 140 g/ha was 95 to 100%.

Same assay, conditions: post-emergence, 336 h, wild oat (Avena fatua), 14 Days After Application, 140 g ai/ha, read-out: Visual Growth Reduction (%) AVEFA
Compound COC(=O)c1nc(-c2ccc(C(F)(F)F)cc2Cl)ccc1[N+](=O)[O-] [F201, Methyl 6-(2-chloro-4-(trifluoromethyl)phenyl)-3-nitropicolinate] has a pest or weed control at 140 g/ha of 0 to 29%. In the case of COC(=O)c1nc(-c2ccc(OC(F)(F)F)cc2Cl)c(F)cc1Cl [F210, Methyl 3-chloro-6-(2-chloro-4-(trifluoromethoxy)phenyl)-5-fluoropicolinate], the pest or weed control at 140 g/ha is reported as 60 to 74%. O=C(O)c1nc(-c2cc(F)c(C(F)(F)F)cc2Cl)c(F)cc1Cl [F254, 3-Chloro-6-(2-chloro-5-fluoro-4-(trifluoromethyl)phenyl)-5-fluoropicolinic acid] showed a pest or weed control at 140 g/ha of 95 to 100%.

Same assay, conditions: post-emergence, 336 h, yellow nutsedge (Cyperus esculentus), 14 Days After Application, 140 g ai/ha, read-out: Visual Growth Reduction (%) CYPES
COC(=O)c1nc(-c2ccc(C(F)(F)F)cc2Cl)ccc1[N+](=O)[O-] [F201, Methyl 6-(2-chloro-4-(trifluoromethyl)phenyl)-3-nitropicolinate] showed a pest or weed control at 140 g/ha of 0 to 29%. In the case of COC(=O)c1nc(-c2ccc(OC(F)(F)F)cc2Cl)c(F)cc1Cl [F210, Methyl 3-chloro-6-(2-chloro-4-(trifluoromethoxy)phenyl)-5-fluoropicolinate], the pest or weed control at 140 g/ha is reported as 0 to 29%. Compound O=C(O)c1nc(-c2cc(F)c(C(F)(F)F)cc2Cl)c(F)cc1Cl [F254, 3-Chloro-6-(2-chloro-5-fluoro-4-(trifluoromethyl)phenyl)-5-fluoropicolinic acid] has a pest or weed control at 140 g/ha of 60 to 74%.
